A value given as a limit tells only on which side of the number the result lay.

The first assay deals with YAP-TEAD interaction. Description: SK-HEP-1 reporter assay (8xTEAD responsive elements driving NanoLuc luciferase). The class given is cell-based. Conditions: Homo sapiens, SK-HEP1, SK-HEP-1 reporter assay; class symbols. The procedure:
To identify inhibitors of YAP-TEAD interaction, 8×TEAD responsive elements driving the NanoLuc® luciferase gene were stably integrated into SK-HEP-1 cells (ECACC #: 91091816).
For the assay, cells were treated in duplicates with the test compounds in a 10-point dose, with the top concentration starting at 30 μM (final concentration in assay). After a 24 hour incubation at 37° C., 95% rH, and 5% CO2, a luciferase substrate/lysis reagent mix (NanoGlo™, Promega) was added to the cells, allowing the quantification of cellular luciferase activity.
Cell Media: The cells were cultured in the following media: MEM, +10% FBS, +1× GlutaMAX, +1 mM Sodium-Pyruvate, +100 μM Non-essential amino acids, +0.1 mg/ml Hygromycin. The media used for the assay was: MEM (w/o Phenol Red), +10% FBS, +1× GlutaMAX, +1 mM Sodium-Pyruvate, +100 μM Non-essential amino acids, +0.5% Pen/Strep
Reagents: The reagents used are listed below:
Cell culture: The cells were examined using an inverted microscope to check for health and cell density. To dissociate adherent cells, the monolayer of cells was washed once with pre-warmed PBS. After removing the PBS, 3 ml pre-warmed Accutase® was added to a F75 flask, dispersed evenly and the flask was allowed to sit in incubator for ˜4-5 minutes.
When a single cell suspension was obtained, 7 ml of prewarmed growth media was added and resuspended with the cells. The cell suspension was transferred to a sterile 15 ml conical centrifuge tube, and spun for 5 min at 300×g, RT. The supernatant was discarded and the pellet was resuspended in 10 ml of pre-warmed growth media.
The total cell count was determined, and 20 μl of the desired cell number was added to each well of a 384 well plate using a Multidrop Combi. The plates were then incubated for 24 hours at 37° C., 95% rH, and 5% C02.
Compound treatment: 24 hours after seeding, the cells were treated with compounds.
A 1:333 dilution of compounds, diluted in DMSO, was made to get a final concentration of 0.3% DMSO per well. To transfer the compounds to the assay plate, […] was shot from Labcyte low dead volume plates to the cell plates containing 20 μl media/well with the ECHO 555 liquid handling system.
After treatment, the cells were fed with 20 μl fresh pre-warmed assay media using a Multidrop combi.
The assay plates were then incubated for another 24 h at 37° C., 95% rH, and 5% CO2.
Luciferase readout: 24 h after treatment, the plates were taken out of the incubator and were allowed to equilibrate to RT. 30 μl of NanoGlo® reagent was added to the plates in the dark. Plates were shaken for 20 min on a Teleshake (˜1500 rpm) in the dark. The luminescence was then measured using an EnVision microplate reader. The IC50 values were generated using Genedata Screener®.
What is called IC50 is the concentration at which inhibition is half-maximal. `Cn1cc2c(n1)c1cc(S(=O)(=O)N3CCC[C@H]3c3cccnc3)ccc1n2-c1ccc(C(F)(F)F)cc1` (single isomer, unassigned) [Example C14] returned a 50% inhibitory concentration (IC50) above 10 µM.

`Cn1cc2c(n1)c1cc(S(=O)(=O)N3CCC[C@H]3c3cncnc3)ccc1n2-c1ccc(C(F)(F)F)cc1` (single isomer, unassigned) [Example C68] gave an IC50 of 0.1 to 10 µM. Turning to `COCC[C@H](CO)NC(=O)c1ccc2c(c1)c1c(C)snc1n2-c1ccc(C(F)(F)F)cc1` (single isomer, unassigned) [Example C93], the IC50 fell in the range of 0.1 to 10 µM. The compound `Cn1cc2c3cc(C(=O)N[C@H](CCO)c4cncs4)ccc3n(-c3ccc(C(F)(F)F)cc3)c2n1` (single isomer, unassigned) [Example C163] registered an IC50 of 0.1 to 10 µM. For the compound `CC(NC(=O)c1ccc2c(c1)c1cn(C)nc1n2-c1ccc(C(F)(F)F)cc1)c1cccc(N)n1` (single isomer, unassigned) [Example C186], the IC50 is 0.1 to 10 µM.

Consider `Cn1cc2c3cc(C(=O)N=[S@@](=O)(CCO)Cc4cccnc4)ccc3n(-c3ccc(C(F)(F)F)cc3)c2n1` (single isomer, unassigned) [Example C190], for which the IC50 was 0.1 to 10 µM. `Cn1nc2c3cc(C(=O)N=[S@](=O)(CCO)Cc4cccnc4)ccc3n(-c3ccc(C(F)(F)F)cc3)c2n1` (single isomer, unassigned) [Example C235] came in with an IC50 of 0.01 to 0.1 µM. The compound `Cn1nc2c3cc(C(=O)N=[S@@](=O)(CCO)Cc4cccnc4)ccc3n(-c3ccc(C(F)(F)F)cc3)c2n1` (single isomer, unassigned) [Example C238] had an IC50 of 0.01 to 0.1 µM. The compound `Cn1nc2c3cc(C(=O)N=[S@@](=O)(CCO)Cc4ccncc4)ccc3n(-c3ccc(C(F)(F)F)cc3)c2n1` (single isomer, unassigned) [Example C266] gave a half-maximal inhibitory concentration (IC50) of 0.1 to 10 µM. `Cn1cc2c3cc(NC(=O)CCl)ccc3n(-c3ccc(C(F)(F)F)cc3)c2n1` [Example 23, 2-chloro-N-[2-methyl-8-[4-(trifluoromethyl)phenyl]pyrazolo[3,4-b]indol-5-yl]acetamide] gave an IC50 above 10 µM.

For `CC(NC(=O)c1ccc2c(c1)c1cn(C)nc1n2-c1ccc(C(F)(F)F)cc1)c1c[nH]nn1` (stereo not drawn) [Example B5], the IC50 lay within 0.1 to 10 µM. Same read-out and setting: the same measure for `CC(NC(=O)c1ccc2c(c1)c1cn(C)nc1n2-c1ccc(C(F)(F)F)cc1)c1ncc[nH]1` (stereo not drawn) [Example B8]: 0.1 to 10 µM; for `CC(CNC(=O)c1ccc2c(c1)c1cn(C)nc1n2-c1ccc(C(F)(F)F)cc1)c1ccc(F)nc1` (stereo not drawn) [Example B92]: 0.1 to 10 µM.

In turn, `Cn1cc2c(n1)c1cc(S(=O)(=O)N3CCC[C@@H]3c3cccnc3)ccc1n2-c1ccc(C(F)(F)F)cc1` [Example C8, 3-[(2R)-1-({2-methyl-4-[4-(trifluoromethyl)phenyl]-2H,4H-pyrazolo[4,3-b]indol-7-yl}sulfonyl)pyrrolidin-2-yl]pyridine] yielded an IC50 above 10 µM.

For the compound `Cn1cc2c3cc(N(S(C)(=O)=O)S(C)(=O)=O)ccc3n(-c3ccc(C(F)(F)F)cc3)c2n1` [Example C19, N-methanesulfonyl-N-{2-methyl-8-[4-(trifluoromethyl)phenyl]-2H,8H-pyrazolo[3,4-b]indol-5-yl}methanesulfonamide], the IC50 is 0.1 to 10 µM. On the same count and under the same terms, the same measure for `Cn1cc2c3cc(NC(=O)Cc4ccccn4)ccc3n(-c3ccc(C(F)(F)F)cc3)c2n1` [Example C22, N-{2-methyl-8-[4-(trifluoromethyl)-phenyl]-2H,8H-pyrazolo[3,4-b]indol-5-yl}-2-(pyridin-2-yl)acetamide]: above 10 µM. With `Cn1cc2c3cc(NC(=O)Cc4cccnc4)ccc3n(-c3ccc(C(F)(F)F)cc3)c2n1` [Example C23, N-{2-methyl-8-[4-(trifluoromethyl)-phenyl]-2H,8H-pyrazolo[3,4-b]indol-5-yl}-2-(pyridin-3-yl)acetamide], the IC50 fell in the range of 0.1 to 10 µM.

In the case of `C[C@@H](CCN)NC(=O)c1ccc2c(c1)c1cn(C)nc1n2-c1ccc(C(F)(F)F)cc1` [Example C26, N-[(2S)-4-aminobutan-2-yl]-2-methyl-8-[4-(trifluoromethyl)phenyl]-2H,8H-pyrazolo[3,4-b]indole-5-carboxamide], the IC50 was 0.1 to 10 µM. Regarding `C[C@H](CCN)NC(=O)c1ccc2c(c1)c1cn(C)nc1n2-c1ccc(C(F)(F)F)cc1` [Example C27, N-[(2R)-4-aminobutan-2-yl]-2-methyl-8-[4-(trifluoromethyl)phenyl]-2H,8H-pyrazolo[3,4-b]indole-5-carboxamide], the 50% inhibitory concentration (IC50) was 0.1 to 10 µM. In turn, `Cn1cc2c3cc(C(=O)OCCS(C)(=N)=O)ccc3n(-c3ccc(C(F)(F)F)cc3)c2n1` (stereo not drawn) [Example C29, 2-[imino(methyl)oxo-λ^6-sulfanyl]ethyl 2-methyl-8-[4-(trifluoromethyl)phenyl]-2H,8H-pyrazolo[3,4-b]indole-5-carboxylate] had an IC50 of 0.01 to 0.1 µM. On the same count and under the same terms, the same measure for `CNc1ccc2c(c1)c1cn(C)nc1n2-c1ccc(C(F)(F)F)cc1` [Example C32, N,2-dimethyl-8-[4-(trifluoromethyl)phenyl]-2H,8H-pyrazolo[3,4-b]indol-5-amine]: 0.1 to 10 µM; for `O=C(O)c1ccc2c(c1)c1cnn(C(F)(F)F)c1n2-c1ccc(C(F)(F)F)cc1` [Example C34, 1-(trifluoromethyl)-8-[4-(trifluoromethyl)phenyl]-1H,8H-pyrazolo[3,4-b]indole-5-carboxylic acid]: 0.1 to 10 µM.

Still in this assay, the particulars now being: Homo sapiens, SK-HEP1, SK-HEP-1 reporter assay; n.d. = value not detectable below threshold given in parentheses; ND = not determinable within the entire range.
With `Cn1cc2c(n1)c1cc(S(=O)(=O)N3C[C@H](O)C[C@@H]3c3ccccc3)ccc1n2-c1ccc(C(F)(F)F)cc1` (single isomer, unassigned) [Example C40], the IC50 was above 30 µM.

On to `Cn1cc2c(n1)c1cc(S(=O)(=O)N3C[C@@H](O)C[C@@H]3c3ccccc3)ccc1n2-c1ccc(C(F)(F)F)cc1` (single isomer, unassigned) [Example C45], for which the IC50 is above 1 µM. For `Cn1cc2c(n1)c1cc(S(=O)(=O)N3C[C@H](O)C[C@H]3c3ccccc3)ccc1n2-c1ccc(C(F)(F)F)cc1` (single isomer, unassigned) [Example C46], the IC50 was above 1 µM. With `Cn1cc2c(n1)c1cc(S(=O)(=O)N3C[C@@H](O)C[C@H]3c3ccccc3)ccc1n2-c1ccc(C(F)(F)F)cc1` (single isomer, unassigned) [Example C47], the IC50 is above 10 µM. With `Cn1cc2c(n1)c1cc(S(=O)(=O)N3CCC[C@@H]3c3cncnc3)ccc1n2-c1ccc(C(F)(F)F)cc1` (single isomer, unassigned) [Example C61], the half-maximal inhibitory concentration (IC50) is above 1 µM.

For the compound `C[C@@H](CO)NS(=O)(=O)c1ccc2c(c1)c1nnn(C)c1n2-c1ccc(C(F)(F)F)cc1` [Example C1, N-[(2S)-1-hydroxypropan-2-yl]-3-methyl-4-[4-(trifluoromethyl)phenyl]-3H,4H-[1,2,3]triazolo[4,5-b]indole-7-sulfonamide], the IC50 was above 30 µM. Regarding `Cn1nnc2c3cc(S(N)(=O)=O)ccc3n(-c3ccc(C(F)(F)F)cc3)c21` [Example C11, 3-methyl-4-[4-(trifluoromethyl)phenyl]-3H,4H-[1,2,3]triazolo[4,5-b]indole-7-sulfonamide], the IC50 was above 30 µM. `C[C@H](CO)NS(=O)(=O)c1ccc2c(c1)c1nnn(C)c1n2-c1ccc(C(F)(F)F)cc1` [Example C13, N-[(2R)-1-hydroxypropan-2-yl]-3-methyl-4-[4-(trifluoromethyl)phenyl]-3H,4H-[1,2,3]triazolo[4,5-b]indole-7-sulfonamide]: the IC50 is above 30 µM.

Regarding `Cn1cc2c3cc(NC(=O)Cc4ccncc4)ccc3n(-c3ccc(C(F)(F)F)cc3)c2n1` [Example C33, N-{2-methyl-8-[4-(trifluoromethyl)phenyl]-2H,8H-pyrazolo[3,4-b]indol-5-yl}-2-(pyridin-4-yl)acetamide], the IC50 is above 10 µM.

The assay is the same for the next values; noted with them: SK-HEP-1 reporter assay; class symbols.
`Cc1snc2c1c1cc(C(=O)N=S(C)(=O)CCCO)ccc1n2-c1ccc(C(F)(F)F)cc1` (single isomer, unassigned) [Example C103] displayed a half-maximal inhibitory concentration (IC50) of 0.1 to 10 µM. The compound `COCCC(CO)NC(=O)c1ccc2c(c1)c1cn(C)nc1n2-c1ccc(C(F)(F)F)cc1` (single isomer, unassigned) [Example C246] showed an IC50 of 0.1 to 10 µM.

These data come from patent publication US20240270748A1 (Merck Patent GmbH, priority 2021, published 2024).
